Consider 5 compounds from US20260001928A1 (CORTERIA PHARMACEUTICALS, priority 2022, published 2026).

As a reminder, the EC50 is the concentration that produces a half-maximal response.

The target of one assay is T1, human CRF2a receptor (Homo sapiens, UniProt Q13324).
T1 construct: expressed in transfected cells; host or cells: TeloHEAC cells
T1 sequence (Q13324 1-411): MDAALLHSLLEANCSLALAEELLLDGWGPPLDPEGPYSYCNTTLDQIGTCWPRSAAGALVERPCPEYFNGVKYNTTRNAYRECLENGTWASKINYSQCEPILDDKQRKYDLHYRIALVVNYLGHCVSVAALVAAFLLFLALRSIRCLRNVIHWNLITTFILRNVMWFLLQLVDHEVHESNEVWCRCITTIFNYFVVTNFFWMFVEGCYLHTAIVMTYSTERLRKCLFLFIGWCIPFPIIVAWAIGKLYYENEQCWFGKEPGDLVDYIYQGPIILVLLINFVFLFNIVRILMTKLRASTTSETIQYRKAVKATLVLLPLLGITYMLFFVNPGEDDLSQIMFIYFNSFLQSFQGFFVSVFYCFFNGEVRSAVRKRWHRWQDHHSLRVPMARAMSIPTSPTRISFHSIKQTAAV
The experiment in a line: Activity at human CRF2a receptor, cAMP functional assay in TeloHEAC cells. It counts as cell-based. The following applies: TeloHEAC cells stably expressing human CRF2a receptor, relative to urocortin 2 (100 nM = 100%). An outline of the steps: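 TeloHEAC cells stably expressing human CRF2a (10000 cells/well, suspended in HBSS/20 mM HEPES with 2 mM IBMX) were exposed to compounds for 30 min at 37 °C. cAMP was read as the 665/620 nm fluorescence ratio after 1 h at room temperature. EC50 was derived relative to 100 nM urocortin 2, set as 100%.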

In a further assay the target is T2, CFR1R receptor (Homo sapiens, UniProt P34998).
T2 construct: host or cells: CHO-K1 (clone 2)
T2 sequence (P34998 24-415): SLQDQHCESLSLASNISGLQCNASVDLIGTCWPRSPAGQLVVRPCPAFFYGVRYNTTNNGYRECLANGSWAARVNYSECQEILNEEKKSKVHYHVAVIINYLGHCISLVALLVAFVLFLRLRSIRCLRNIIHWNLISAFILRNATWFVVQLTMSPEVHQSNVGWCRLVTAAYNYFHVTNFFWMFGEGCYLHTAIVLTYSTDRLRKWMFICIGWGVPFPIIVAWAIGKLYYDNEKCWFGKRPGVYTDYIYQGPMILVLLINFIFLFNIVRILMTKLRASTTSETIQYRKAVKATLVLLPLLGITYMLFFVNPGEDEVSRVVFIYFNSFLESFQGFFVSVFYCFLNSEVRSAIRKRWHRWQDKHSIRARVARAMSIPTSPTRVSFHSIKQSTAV
The assay is described as follows: Activity at anti-target CFR1R receptor, cAMP assay in CRF1R-overexpression CHO-K1 cells. The following applies: 100% = Sauvagine at 100 nM; for EC50: cAMP. It counts as cell-based. An outline of the steps: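 Grow clone 2 to near confluence at 37° C. under 5% CO2 in F12 (Hams) with 10% FBS and G418, harvest, and freeze in 10% DMSO. Thaw and plate at 4000 cells/well. Then proceed per the TeloHAEC method, normalising to Sauvagine 100 nM as maximum.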

*1 amine or outer side, *2 acyl side, *3 side chain or, on linkers, in order; H or OH if unused. Where a SMILES comes first, the peptide text is derived from it. Side-chain parts run from the residue outwards. [ ]: non-standard residue; d: D form. The star is where a group is joined. C18 diacid = O=C(O)CCCCCCCCCCCCCCCCC(=O)*; C16 diacid = O=C(O)CCCCCCCCCCCCCCC(=O)*; γGlu = O=C(O)[C@H](CCC(=O)[*:2])N[*:1]; NMeI = CC[C@H](C)[C@H](NC)C(=O)O; Api = NC1(C(=O)O)CCNCC1; AEEA = NCCOCCOCC(=O)O; Aib = CC(C)(N)C(=O)O

With `CC[C@H](C)[C@H](NC)C(=O)N[C@H](C(=O)N[C@@H](CC(C)C)C(=O)N[C@@H](CO)C(=O)N[C@@H](CC(C)C)C(=O)N[C@@H](CC(=O)O)C(=O)N[C@@H](C(=O)N1CCC[C@H]1C(=O)N[C@H](C(=O)N[C@@H](CCCCN)C(=O)N[C@@H](CC(C)C)C(=O)N[C@@H](CCCCNC(=O)CC[C@H](NC(=O)CCCCCCCCCCCCCCCCC(=O)O)C(=O)O)C(=O)N[C@@H](CCCCN)C(=O)N[C@H](C(=O)N[C@@H](CC(C)C)C(=O)N[C@@H](CC(C)C)C(=O)N[C@@H](CCC(=O)O)C(=O)N[C@@H](CCC(N)=O)C(=O)N[C@@H](CCC(=O)O)C(=O)N[C@@H](CCCCN)C(=O)N[C@@H](CCC(N)=O)C(=O)N[C@@H](CCCCN)C(=O)N[C@@H](CCCCN)C(=O)N[C@@H](CCC(N)=O)C(=O)N[C@@H](CCCNC(=N)N)C(=O)N[C@@H](CCC(=O)O)C(=O)N[C@@H](CCC(N)=O)C(=O)N[C@@H](C)C(=O)N[C@@H](CCC(=O)O)C(=O)N[C@H](C(=O)N[C@@H](CC(N)=O)C(=O)N[C@@H](CCC(=O)O)C(=O)N[C@@H](CCC(N)=O)C(=O)N[C@H](C(=O)N[C@@H](CC(C)C)C(=O)N[C@@H](C)C(=O)N[C@@H](CCC(N)=O)C(=O)N[C@H](C(N)=O)C(C)C)[C@@H](C)CC)[C@@H](C)O)[C@@H](C)CC)[C@@H](C)CC)C(C)C)C(C)C` [compound 142] (H-[NMeI]VLSLD[dV]PIKLK([γGlu-C18 diacid])KILLEQEKQKKQREQAETNEQILAQV-NH2), the EC50 was 0.07 nM at human CRF2a receptor and more than 250 nM at CFR1R receptor. Besides, on CFR1R receptor, the “Emax (% I)” value was 3 % I.

`CC[C@H](C)[C@H](N)C(=O)N[C@H](C(=O)N[C@@H](CC(C)C)C(=O)N[C@@H](CO)C(=O)N[C@@H](CC(C)C)C(=O)N[C@@H](CC(=O)O)C(=O)N[C@@H](C(=O)N1CCC[C@H]1C(=O)N[C@H](C(=O)N[C@@H](CCCCN)C(=O)N[C@@H](CC(C)C)C(=O)N[C@@H](CCCCNC(=O)COCCOCCNC(=O)COCCOCCNC(=O)CC[C@H](NC(=O)CCCCCCCCCCCCCCCCC(=O)O)C(=O)O)C(=O)N[C@@H](CCC(N)=O)C(=O)N[C@H](C(=O)N[C@@H](CC(C)C)C(=O)N[C@@H](CC(C)C)C(=O)N[C@@H](CCCCN)C(=O)N[C@@H](CCC(N)=O)C(=O)N[C@@H](CCC(=O)O)C(=O)N[C@@H](CCCNC(=N)N)C(=O)N[C@@H](CCC(N)=O)C(=O)N[C@@H](CCCCN)C(=O)N[C@@H](CCCCN)C(=O)N[C@@H](CCC(N)=O)C(=O)N[C@@H](CCCNC(=N)N)C(=O)N[C@@H](CCC(=O)O)C(=O)N[C@@H](CCC(N)=O)C(=O)N[C@@H](C)C(=O)N[C@@H](CCC(=O)O)C(=O)N[C@@H](CCCCN)C(=O)N[C@@H](CC(N)=O)C(=O)N[C@@H](CCCCN)C(=O)N[C@@H](CCC(N)=O)C(=O)N[C@H](C(=O)N[C@@H](CC(C)C)C(=O)N[C@@H](CCC(=O)O)C(=O)N[C@@H](CCC(N)=O)C(=O)N[C@H](C(N)=O)C(C)C)[C@@H](C)CC)[C@@H](C)CC)[C@@H](C)CC)C(C)C)C(C)C` [compound 150] (H-IVLSLD[dV]PIKLK([AEEA-AEEA-γGlu-C18 diacid])QILLKQERQKKQREQAEKNKQILEQV-NH2): the EC50 at human CRF2a receptor is 0.25 nM; on CFR1R receptor, more than 250 nM. For the same compound, the “Emax (% I)” value at CFR1R receptor is on record as 38 % I.

With `CC[C@H](C)[C@H](N)C(=O)N[C@H](C(=O)N[C@@H](CC(C)C)C(=O)N[C@@H](CO)C(=O)N[C@@H](CC(C)C)C(=O)N[C@@H](CC(=O)O)C(=O)N[C@@H](C(=O)N1CCC[C@H]1C(=O)N[C@H](C(=O)N[C@@H](CCCCN)C(=O)N[C@@H](CC(C)C)C(=O)N[C@@H](CCCCNC(=O)CC[C@H](NC(=O)CCCCCCCCCCCCCCC(=O)O)C(=O)O)C(=O)N[C@@H](CCC(N)=O)C(=O)N[C@H](C(=O)N[C@@H](CC(C)C)C(=O)N[C@@H](CC(C)C)C(=O)N[C@@H](CCCCN)C(=O)N[C@@H](CCC(N)=O)C(=O)N[C@@H](CCC(=O)O)C(=O)N[C@@H](CCCNC(=N)N)C(=O)N[C@@H](CCC(N)=O)C(=O)N[C@@H](CCCCN)C(=O)N[C@@H](CCCCN)C(=O)N[C@@H](CCC(N)=O)C(=O)N[C@@H](CCCNC(=N)N)C(=O)N[C@@H](CCC(=O)O)C(=O)N[C@@H](CCC(N)=O)C(=O)N[C@@H](C)C(=O)N[C@@H](CCC(=O)O)C(=O)N[C@@H](CCCCN)C(=O)N[C@@H](CC(N)=O)C(=O)N[C@@H](CCCCN)C(=O)N[C@@H](CCC(N)=O)C(=O)N[C@H](C(=O)N[C@@H](CC(C)C)C(=O)N[C@@H](CCC(=O)O)C(=O)N[C@@H](CCC(N)=O)C(=O)N[C@H](C(N)=O)C(C)C)[C@@H](C)CC)[C@@H](C)CC)[C@@H](C)CC)C(C)C)C(C)C` [compound 151] (H-IVLSLD[dV]PIKLK([γGlu-C16 diacid])QILLKQERQKKQREQAEKNKQILEQV-NH2), the EC50 on human CRF2a receptor was 0.12 nM. The “Emax (% I)” value at CFR1R receptor is 53 % I.

For `CC[C@H](C)[C@H](NC(C)=O)C(=O)N[C@H](C(=O)N[C@@H](CC(C)C)C(=O)N[C@@H](CO)C(=O)N[C@@H](CC(C)C)C(=O)N[C@@H](CC(=O)O)C(=O)N[C@@H](C(=O)N1CCC[C@H]1C(=O)N[C@H](C(=O)N[C@@H](CCCCN)C(=O)N[C@@H](CC(C)C)C(=O)N[C@@H](CCCCNC(=O)CC[C@H](NC(=O)CCCCCCCCCCCCCCC(=O)O)C(=O)O)C(=O)N[C@@H](CCCCN)C(=O)N[C@H](C(=O)N[C@@H](CC(C)C)C(=O)N[C@@H](CC(C)C)C(=O)N[C@@H](CCC(=O)O)C(=O)N[C@@H](CCC(N)=O)C(=O)N[C@@H](CCC(=O)O)C(=O)N[C@@H](CCCCN)C(=O)N[C@@H](CCC(N)=O)C(=O)N[C@@H](CCCCN)C(=O)N[C@@H](C)C(=O)N[C@@H](CCC(N)=O)C(=O)N[C@@H](CCCNC(=N)N)C(=O)N[C@@H](CCC(=O)O)C(=O)N[C@@H](CCC(N)=O)C(=O)N[C@@H](C)C(=O)N[C@@H](CCC(=O)O)C(=O)N[C@H](C(=O)N[C@@H](CC(N)=O)C(=O)NC1(C(=O)N[C@@H](CCC(N)=O)C(=O)N[C@H](C(=O)N[C@@H](CC(C)C)C(=O)N[C@@H](C)C(=O)N[C@@H](CCC(N)=O)C(=O)N[C@H](C(N)=O)C(C)C)[C@@H](C)CC)CCNCC1)[C@@H](C)O)[C@@H](C)CC)[C@@H](C)CC)C(C)C)C(C)C` [compound 152] (Ac-IVLSLD[dV]PIKLK([γGlu-C16 diacid])KILLEQEKQKAQREQAETN[Api]QILAQV-NH2), at human CRF2a receptor, the EC50 stood at 0.51 nM. In addition, on CFR1R receptor, the “Emax (% I)” value stood at 25 % I and the EC50 was more than 250 nM.

For the compound `CC[C@H](C)[C@H](NC(C)=O)C(=O)N[C@H](C(=O)N[C@@H](CC(C)C)C(=O)N[C@@H](CO)C(=O)N[C@@H](CC(C)C)C(=O)N[C@@H](CC(=O)O)C(=O)N[C@@H](C(=O)N1CCC[C@H]1C(=O)N[C@H](C(=O)N[C@@H](CCCCN)C(=O)N[C@@H](CC(C)C)C(=O)N[C@@H](CCCCNC(=O)CC[C@H](NC(=O)CCCCCCCCCCCCCCC(=O)O)C(=O)O)C(=O)N[C@@H](CCCCN)C(=O)N[C@H](C(=O)N[C@@H](CC(C)C)C(=O)N[C@@H](CC(C)C)C(=O)N[C@@H](CCC(=O)O)C(=O)N[C@@H](CCC(N)=O)C(=O)N[C@@H](CCC(=O)O)C(=O)N[C@@H](CCCCN)C(=O)N[C@@H](CCC(N)=O)C(=O)N[C@@H](CCCCN)C(=O)NC(C)(C)C(=O)N[C@@H](CCC(N)=O)C(=O)N[C@@H](CCCNC(=N)N)C(=O)N[C@@H](CCC(=O)O)C(=O)N[C@@H](CCC(N)=O)C(=O)N[C@@H](C)C(=O)N[C@@H](CCC(=O)O)C(=O)N[C@H](C(=O)N[C@@H](CC(N)=O)C(=O)NC1(C(=O)N[C@@H](CCC(N)=O)C(=O)N[C@H](C(=O)N[C@@H](CC(C)C)C(=O)N[C@@H](C)C(=O)N[C@@H](CCC(N)=O)C(=O)N[C@H](C(N)=O)C(C)C)[C@@H](C)CC)CCNCC1)[C@@H](C)O)[C@@H](C)CC)[C@@H](C)CC)C(C)C)C(C)C` [compound 153] (Ac-IVLSLD[dV]PIKLK([γGlu-C16 diacid])KILLEQEKQK[Aib]QREQAETN[Api]QILAQV-NH2), a half-maximal response on human CRF2a receptor (EC50) required 0.41 nM. Further, at CFR1R receptor, the “Emax (% I)” value is on record as 22 % I and the EC50 was more than 250 nM.
